Data taken from patent US10183015B2, “Heterocyclic compounds and methods of use” (Medivation Technologies LLC, priority 2015, dated 2019).
Values joined by “and” are separate entries in the source; they are usually repeats but may differ in a detail not shown here. Equal values may be shown once.

What was measured:
Type in all cases: in vivo
[1] = test system: diet-induced NASH obese insulin resistant mice; assay: DIN mouse model: blood glucose, plasma insulin, HOMA-IR; conditions: for HOMA-IR index reduction / HOMA-IR day 0 / blood glucose day 0 / plasma insulin day 0: 20 mg/kg; for HOMA-IR day 0 / blood glucose day 0 / plasma insulin day 0: day 0 (baseline); for HOMA-IR day 42 / blood glucose day 42 / plasma insulin day 42: day 42, 20 mg/kg; for HOMA-IR day 70 / blood glucose day 70 / plasma insulin day 70: day 70, 20 mg/kg;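 on blood glucose day 0: blood glucose in mg/dL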;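 on blood glucose day 42: blood glucose in mg/dL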;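 on blood glucose day 70: blood glucose in mg/dL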
Procedure: (§1) Male C57Bl/6J mice (8 weeks old) were housed in enriched ventilated cages (31×12.5×12.7 cm) throughout the experimental phase. Animals' cages litters were changed at least once a week. Animal were housed 5 per cage on inverted 12-hour light cycle (at 09:00 am lights off), 22±2° C. and 55±10% relative humidity. The acclimation period was 20 days. During the acclimation period, all mice were fed a standard diet (RM1 (E) 801492, SDS) and tap water ad libitum. After the acclimation period, mice were fed with the DIN diet (60% fat, cholesterol enriched) and fructose-enriched tap water ad libitum until the end of the experiment.
(§2) At 6 weeks of diet, mice were 4-hour fasted (09:00 am to 1:00 pm) and blood (150 μl/EDTA) was collected at 01:00 pm by retro-orbital bleeding under isoflurane anesthesia. Mice were then allocated in 2 homogenous groups (n=12/group) according to their plasma levels of ALT (average levels: 685U/L), AST (average levels: 627U/L) and HOMA-IR index (average value: 4.7), into 2 homogenous groups (see values at day 0 in Tables 15A and 15B ALT/AST and Tables 16A and 16B for HOMA-IR). Mice were then treated once daily by oral gavage with vehicle (Group 1) or Compound #37 at 20 mg/kg (Group 2) for 70 days.
To investigate whether Compound #37 improves pre-existing steatosis/NASH pathology, a study was conducted using a 16-week diet-induced NASH mouse model. In this model, mice develop steatosis that progresses with inflammation and fibrosis that mimic many of the observed pathologies in human nonalcoholic fatty liver disease (NAFLD) and NASH (Hebbard & George, 2010). For 6 weeks, mice were fed a high-fat, high-cholesterol diet and provided drinking water containing fructose to induce liver pathology (Charlton et al, 2011). After 6 weeks, the mice were divided into 2 groups with similar mean aspartate aminotransferase (AST) and alanine aminotransferase (ALT) values (n=12 mice), although it should be noted that AST and ALT concentrations within both groups were higher and with greater variability than anticipated (e.g., mean ALT 677 U/L [SD, 401 U/L] in the vehicle control group and 693 U/L [SD, 365 U/L] in the Compound #37 group). After the animals were divided into 2 groups, the diet was continued for 10 additional weeks during which time 1 group received vehicle and the other was treated with 20 mg/kg/day Compound #37.

[2] = test system: PERK; assay: DIN mouse model: hepatic PERK gene expression; conditions: liver, 20 mg/kg group
Procedure: (§3) Gene expression analysis. Hepatic expression levels of genes involved in lipid metabolism (FAS, SREBP1, ACC1, SCD1), cholesterol metabolism (HMG-CoAR, LDLR), SREBP proteolysis (SCAP, INSIG1), ER stress (PERK), oxidative stress (NRF2), inflammation (MCP-1), and fibrosis (collagen 1α1) were quantified by RTqPCR. Expression level was normalized to 18S gene expression and relative expression to vehicle group was calculated with the […] method.
as §1, §2
Hepatic expression levels of genes involved in lipid (FAS, SREBP1, ACC1, SCD1), cholesterol metabolism (HMG-CoAR, LDLR), in SREBP proteolysis (SCAP, INSIG1), in ER stress (PERK), oxidative stress (NRF2), and inflammation (MCP-1) were not changed. However, expression of collagen 1α1, involved in liver fibrosis, was reduced by 66% in mice treated with Compound #37 (p<0.05 vs. vehicle).

[3] = test system: NRF2; assay: Short-term Paigen-diet NASH mouse model: hepatic NRF2 gene expression (RT-qPCR); set-up: key to ER and oxidative stress gene expression NRF2: Dct: Ct of gene minus Ct of 18S reference; key to ER and oxidative stress gene expression NRF2: 2DDct: expression relative to vehicle group, normalized to 18S (2^-ΔΔCt); conditions: 21 days
Procedure: To investigate whether Compound #37 prevents the development of pathology associated with NASH and steatosis in an acute exploratory disease model, a study was conducted using a diet-induced acute liver steatosis model in mice. As described below, in this study, C57BL/6J mice were initiated on the Paigen diet and simultaneously treated with Compound #37 (5, 20, and 40 mg/kg/day) or vehicle control (20% HPβCD 10 mL/kg/day) by oral gavage for 21 days.
After acclimation, 8-week old male C57Bl/6J mice (Charles River) weighing about 25 g were randomized in 4 groups according their body weight and treated once daily around noon by oral gavage with vehicle, or Compound #37 at various for 21 days as follows: Group 1: vehicle-20% (2-hydroxypropyl)-β-cyclodextrin (HP-β-CD) (n=10); Group 2: Compound #37, 5 mg/kg ([…]) Group 4: Compound #37, 40 mg/kg (n=10). During the treatment period, body weight and food intake (measured over 24h) were measured 3 times per week and once a week, respectively. During the acclimation, all mice were fed a standard diet (Special Diets Services RM1 (E), product no. 801492) and tap water ad libitum. After the acclimation period, mice were fed until the end of the experiment with a 60% high fat Paigen diet (60 kcal % fat, 1.25% cholesterol, and 0.5% cholate; D11061901, Research Diet) and tap water ad libitum.
as §3

[4] = individual animals, vs vehicle mean, 20 mg/kg

SMILES: CC(C)Cc1cc(-c2nc(-c3ccc(NS(=O)(=O)C(F)(F)F)cc3Cl)cs2)ccn1 [Compound 37, N-(3-chloro-4-(2-(2-isobutylpyridin-4-yl)thiazol-4-yl)phenyl)-1,1,1-trifluoromethanesulfonamide]
- HOMA-IR index reduction ([1]; day 42, not significant): 50%
- HOMA-IR index reduction ([1]; day 70, not significant): 40%
- HOMA-IR day 0 ([1]; group mean, n 12): 4.8 [mM × μU/mL]/22.5
- blood glucose day 0 ([1]; group mean, n 12): 104 mg/dL
- plasma insulin day 0 ([1]; group mean, n 12): 17 μU/mL
- HOMA-IR day 0 ([1]; individual animals): 2.7 [mM × μU/mL]/22.5 and 4.1 [mM × μU/mL]/22.5 and 23.6 [mM × μU/mL]/22.5 and 2.1 [mM × μU/mL]/22.5 (2×) and 2.3 [mM × μU/mL]/22.5 (2×) and 1.9 [mM × μU/mL]/22.5 and 1.8 [mM × μU/mL]/22.5 and 3.8 [mM × μU/mL]/22.5 and 1.6 [mM × μU/mL]/22.5 and 8.8 [mM × μU/mL]/22.5
- blood glucose day 0 ([1]; individual animals): 97 mg/dL and 113 mg/dL (2×) and 123 mg/dL and 106 mg/dL and 79 mg/dL and 95 mg/dL and 114 mg/dL and 102 mg/dL and 89 mg/dL and 112 mg/dL and 103 mg/dL
- plasma insulin day 0 ([1]; individual animals): 11.3 μU/mL and 14.7 μU/mL and 77.6 μU/mL and 8.1 μU/mL and 11.9 μU/mL and 6.9 μU/mL and 7.5 μU/mL (2×) and 13.6 μU/mL and 8.4 μU/mL and 31.9 μU/mL and 9 μU/mL
- HOMA-IR day 42 ([1]; group mean, n 12): 3.7 [mM × μU/mL]/22.5
- blood glucose day 42 ([1]; group mean, n 12): 133 mg/dL
- plasma insulin day 42 ([1]; group mean, n 12): 11.5 μU/mL
- HOMA-IR day 42 ([1]; individual animals): 3.8 [mM × μU/mL]/22.5 (2×) and 3.3 [mM × μU/mL]/22.5 and 5.0 [mM × μU/mL]/22.5 and 7.7 [mM × μU/mL]/22.5 and 2.8 [mM × μU/mL]/22.5 (3×) and 1.9 [mM × μU/mL]/22.5 and 3.7 [mM × μU/mL]/22.5 and 3.5 [mM × μU/mL]/22.5 and 3.4 [mM × μU/mL]/22.5
- blood glucose day 42 ([1]; individual animals): 133 mg/dL and 139 mg/dL (2×) and 112 mg/dL and 126 mg/dL and 128 mg/dL and 132 mg/dL and 131 mg/dL and 138 mg/dL and 151 mg/dL and 140 mg/dL and 127 mg/dL
- plasma insulin day 42 ([1]; individual animals): 11.6 μU/mL and 9.5 μU/mL and 18.0 μU/mL and 24.8 μU/mL and 8.9 μU/mL and 11.8 μU/mL and 5.8 μU/mL and 8.2 μU/mL (2×) and 10.0 μU/mL and 10.2 μU/mL and 10.7 μU/mL
- HOMA-IR day 70 ([1]; group mean, n 11): 4.5 [mM × μU/mL]/22.5
- blood glucose day 70 ([1]; group mean, n 11): 130 mg/dL
- plasma insulin day 70 ([1]; group mean, n 11): 13.7 μU/mL
- HOMA-IR day 70 ([1]; individual animals): 7.5 [mM × μU/mL]/22.5 and 2.6 [mM × μU/mL]/22.5 and 6.0 [mM × μU/mL]/22.5 and 5.8 [mM × μU/mL]/22.5 and 3.9 [mM × μU/mL]/22.5 and 2.8 [mM × μU/mL]/22.5 and 6.5 [mM × μU/mL]/22.5 and 2.5 [mM × μU/mL]/22.5 and 3.8 [mM × μU/mL]/22.5 and 3.1 [mM × μU/mL]/22.5 and 4.5 [mM × μU/mL]/22.5
- blood glucose day 70 ([1]; individual animals): 138 mg/dL and 132 mg/dL and 135 mg/dL and 157 mg/dL and 136 mg/dL and 124 mg/dL and 127 mg/dL and 100 mg/dL and 114 mg/dL and 130 mg/dL and 141 mg/dL
- plasma insulin day 70 ([1]; individual animals): 21.9 μU/mL and 8.0 μU/mL and 18.1 μU/mL and 15.1 μU/mL and 11.5 μU/mL and 9.3 μU/mL and 20.6 μU/mL and 10.3 μU/mL and 13.4 μU/mL and 9.8 μU/mL and 12.9 μU/mL
- PERK Dct ([2]; individual animals, normalised to 18S, 20 mg/kg): 14.23 and 14.41 and 16.11 and 14.89 and 14.95 and 14.18 and 14.85 and 14.3 and 15.75 and 16.07 and 12.9
- PERK 2^DDct [2, 4]: 1.2 and 1.06 and 0.33 and 0.76 and 0.73 and 1.24 and 0.78 and 1.15 and 0.42 and 0.34 and 3.02
- PERK DDct [2, 4]: −0.27 and −0.09 and 1.61 and 0.39 and 0.45 and −0.32 and 0.35 and −0.2 and 1.25 and 1.57 and −1.6
- PERK (Ct) ([2]; individual animals, 20 mg/kg): 26.78 and 26.96 and 28.95 and 27.32 and 27.3 and 26.77 and 26.58 and 26.81 and 27.25 and 27.62 and 25.25
- PERK 2^DDct ([2]; mean, n 11): 1.00
- PERK (Ct) ([2]; mean, n 11): 27.1
- PERK DDct ([2]; mean, n 11): 0.29
- PERK Dct ([2]; mean, n 11): 14.8
- ER and oxidative stress gene expression NRF2: 2DDct ([3]; 5 mg/kg, group mean, n 10): 0.76
- ER and oxidative stress gene expression NRF2: 18S ([3]; 5 mg/kg, group mean, n 10): 12.3
- ER and oxidative stress gene expression NRF2: DDct ([3]; 5 mg/kg, group mean, n 10): 0.57
- ER and oxidative stress gene expression NRF2: Dct ([3]; 5 mg/kg, group mean, n 10): 11.5
- ER and oxidative stress gene expression NRF2: NRF2 ([3]; 5 mg/kg, group mean, n 10): 23.8
- ER and oxidative stress gene expression NRF2: 2DDct ([3]; 5 mg/kg, individual animals): 0.76 and 0.49 and 0.57 and 1.91 and 0.32 and 0.4 and 0.82 and 1.02 and 0.67 and 0.68
- ER and oxidative stress gene expression NRF2: 18S ([3]; 5 mg/kg, individual animals): 13.46 and 13.11 and 11.61 and 13.35 (2×) and 12.03 and 11.6 and 11.79 and 11.14 and 11.12
- ER and oxidative stress gene expression NRF2: DDct ([3]; 5 mg/kg, individual animals): 0.4 and 1.02 and 0.81 and −0.93 and 1.66 and 1.32 and 0.29 and −0.03 and 0.58 and 0.56
- ER and oxidative stress gene expression NRF2: Dct ([3]; 5 mg/kg, individual animals): 11.34 and 11.96 and 11.75 and 10.01 and 12.6 and 12.26 and 11.23 and 10.91 and 11.52 and 11.5
- ER and oxidative stress gene expression NRF2: NRF2 ([3]; 5 mg/kg, individual animals): 24.8 and 25.07 and 23.36 (2×) and 24.63 and 25.61 and 22.83 and 22.7 and 22.66 and 22.62
- ER and oxidative stress gene expression NRF2: 2DDct ([3]; 20 mg/kg, group mean, n 6): 1.08
- ER and oxidative stress gene expression NRF2: 18S ([3]; 20 mg/kg, group mean, n 6): 12.2
- ER and oxidative stress gene expression NRF2: DDct ([3]; 20 mg/kg, group mean, n 6): 0.03
- ER and oxidative stress gene expression NRF2: Dct ([3]; 20 mg/kg, group mean, n 6): 11
- ER and oxidative stress gene expression NRF2: NRF2 ([3]; 20 mg/kg, group mean, n 6): 23.2
- ER and oxidative stress gene expression NRF2: 2DDct ([3]; 20 mg/kg, individual animals): 0.76 (2×) and 0.91 and 2.23 and 0.65 and 1.13
- ER and oxidative stress gene expression NRF2: 18S ([3]; 20 mg/kg, individual animals): 12.91 and 12.29 and 12.2 and 13.03 and 11.49 and 11.26
- ER and oxidative stress gene expression NRF2: DDct ([3]; 20 mg/kg, individual animals): 0.39 and 0.4 and 0.13 and −1.16 and 0.62 and −0.18
- ER and oxidative stress gene expression NRF2: Dct ([3]; 20 mg/kg, individual animals): 11.33 and 11.34 and 11.07 and 9.78 and 11.56 and 10.76
- ER and oxidative stress gene expression NRF2: NRF2 ([3]; 20 mg/kg, individual animals): 24.24 and 23.63 and 23.27 and 22.81 and 23.05 and 22.02
